Experimental data from ChEMBL document CHEMBL4428097, “Gallic acid induces apoptosis in EGFR-mutant non-small cell lung cancers by accelerating EGFR turnover” (Bioorg Med Chem Lett, 2016).
Active and inactive are the calls of the source. The calls are words filed in the database; no cut-off is given here.

Legend:
NCI-H1650 [1] = test: Decrease in EGFR level in human NCI-H1650 cells harboring EGFR-mutant at 30 and 60 uM by […]; format: functional, cell-based
[2] = target: Epidermal growth factor receptor (Homo sapiens) (UniProt P00533); test: Inhibition of EGFR-mediated AKT phosphorylation in human NCI-H460 cells harboring wild-type EGFR at 30 and 60 uM measured after 24 hrs by immunoblotting analysis; format: cell-based
NCI-H1650 [3] = test: Inhibition of EGFR mutant-mediated ERK phosphorylation in human NCI-H1650 cells harboring EGFR-mutant measured after 24 hrs by immunoblotting analysis; format: cell-based
NCI-H1975 [4] = test: Induction of EGFR turnover in human NCI-H1975 cells harboring EGFR-mutant at 60 uM measured after 24 hrs in presence of proteosome inhibitor bortezomib by immunoblotting analysis; format: functional, cell-based
NCI-H1975 [5] = test: Decrease in EGFR level in human NCI-H1975 cells harboring EGFR-mutant measured after 24 hrs by immunoblotting analysis; format: functional, cell-based
NCI-H1975 [6] = test: Induction of EGFR turnover in human NCI-H1975 cells harboring EGFR-mutant assessed as receptor half life […] at 60 uM in presence of cycloheximide by immunoblotting analysis; format: functional, cell-based
NCI-H1650 [7] = test: Inhibition of EGFR mutant-mediated AKT phosphorylation in human NCI-H1650 cells harboring EGFR-mutant at 30 and 60 uM measured after 24 hrs by immunoblotting analysis; format: cell-based
[8] = target: Epidermal growth factor receptor (Homo sapiens) (UniProt P00533); test: Inhibition of EGFR-mediated ERK phosphorylation in human NCI-H460 cells harboring wild-type EGFR at 30 and 60 uM measured after 24 hrs by immunoblotting analysis; format: cell-based
[9] = target: Epidermal growth factor receptor (Homo sapiens) (UniProt P00533); test: Inhibition of EGFR-mediated AKT phosphorylation in human A549 cells harboring wild-type EGFR at 30 and 60 uM measured after 24 hrs by immunoblotting analysis; format: cell-based
NCI-H1975 [10] = test: Induction of apoptosis in human NCI-H1975 harboring EGFR-mutant cells assessed as cell death measured after 24 hrs by Annexin-V/PI staining based analysis; format: functional
NCI-H1650 [11] = test: Increase in PARP level in human NCI-H1650 cells harboring EGFR-mutant at 30 and 60 uM by immunoblotting analysis; format: functional, cell-based
PC-9 [12] = test: Decrease in EGFR level in human erlotinib-resistant PC9 cells harboring EGFR T790M mutant at 30 and 60 uM measured after 24 hrs by immunoblotting analysis; format: functional, cell-based
A549 [13] = test: Increase in PARP level in human A549 cells harboring wild-type EGFR at 30 and 60 uM by immunoblotting analysis; format: functional, cell-based
PC-9 [14] = test: Decrease in EGFR level in human gefitinib-resistant PC9 cells harboring EGFR T790M mutant at 30 and 60 uM measured after 24 hrs by immunoblotting analysis; format: functional, cell-based
NCI-H1975 [15] = test: Inhibition of EGFR mutant-mediated AKT phosphorylation in human NCI-H1975 cells harboring EGFR-mutant at 30 and 60 uM measured after 24 hrs by immunoblotting analysis; format: cell-based
NCI-H1975 [16] = test: Inhibition of EGFR mutant-mediated ERK phosphorylation in human NCI-H1975 cells harboring EGFR-mutant at 30 and 60 uM measured after 24 hrs by immunoblotting analysis; format: cell-based
A549 [17] = test: Induction of apoptosis in human A549 cells harboring wild-type EGFR assessed as cell death at 30 and 60 uM measured after 24 hrs by Annexin-V/PI staining based analysis; format: functional
PC-9 [18] = test: Induction of apoptosis in human erlotinib-resistant PC9 cells harboring EGFR T790M mutant assessed as cell death at 30 and 60 uM measured after 24 hrs by Annexin-V/PI staining based analysis; format: functional
PC-9 [19] = test: Antiproliferative activity against human erlotinib-resistant PC9 cells harboring EGFR T790M mutant assessed as cell viability measured after 24 hrs; format: functional, cell-based
NCI-H1650 [20] = test: Antiproliferative activity against human NCI-H1650 cells harboring EGFR-mutant assessed as cell viability measured after 24 hrs; format: functional, cell-based
NCI-H1975 [21] = test: Increase in PARP level in human NCI-H1975 cells harboring EGFR-mutant at 30 and 60 uM by immunoblotting analysis; format: functional, cell-based
NCI-H1650 [22] = test: Effect on ROS level in human NCI-H1650 cells harboring EGFR-mutant at 60 uM; format: functional, cell-based
[23] = target: Epidermal growth factor receptor (Homo sapiens) (UniProt P00533); test: Inhibition of EGFR-mediated ERK phosphorylation in human A549 cells harboring wild-type EGFR at 30 and 60 uM measured after 24 hrs by immunoblotting analysis; format: cell-based
PC-9 [24] = test: Antiproliferative activity against human gefitinib-resistant PC9 cells harboring EGFR T790M mutant assessed as cell viability measured after 24 hrs; format: functional, cell-based
NCI-H460 [25] = test: Increase in cleaved caspase3 level in human NCI-H460 cells harboring wild-type EGFR at 30 and 60 uM by immunoblotting analysis; format: functional, cell-based
A549 [26] = test: Increase in cleaved caspase3 level in human A549 cells harboring wild-type EGFR at 30 and 60 uM by immunoblotting analysis; format: functional, cell-based
PC-9 [27] = test: Increase in PARP level in human gefitinib-resistant PC9 cells harboring EGFR T790M mutant at 30 and 60 uM by immunoblotting analysis; format: functional, cell-based
PC-9 [28] = test: Increase in PARP level in human erlotinib-resistant PC9 cells harboring EGFR T790M mutant at 30 and 60 uM by immunoblotting analysis; format: functional, cell-based
NCI-H1650 [29] = test: Induction of apoptosis in human NCI-H1650 cells harboring EGFR-mutant assessed as cell death at 60 uM in presence of NAC; format: functional, cell-based
NCI-H1975 [30] = test: Effect on ROS level in human NCI-H1975 cells harboring EGFR-mutant at 60 uM; format: functional, cell-based
NCI-H460 [31] = test: Antiproliferative activity against human NCI-H460 cells harboring wild-type EGFR assessed as cell viability at 30 and 60 uM measured after 24 hrs; format: functional, cell-based
NCI-H1650 [32] = test: Induction of apoptosis in human NCI-H1650 cells harboring EGFR-mutant assessed as cell death measured after 24 hrs by Annexin-V/PI staining based analysis; format: functional
NCI-H1650 [33] = test: Increase in cleaved caspase3 level in human NCI-H1650 cells harboring EGFR-mutant at 30 and 60 uM by immunoblotting analysis; format: functional, cell-based
NCI-H1975 [34] = test: Effect on EGFR mRNA levels in human NCI-H1975 cells harboring EGFR-mutant at 30 uM by quantitative RT-PCR method; format: functional, cell-based
NCI-H460 [35] = test: Induction of apoptosis in human NCI-H460 cells harboring wild-type EGFR assessed as cell death at 30 and 60 uM measured after 24 hrs by Annexin-V/PI staining based analysis; format: functional
A549 [36] = test: Decrease in EGFR level in human A549 cells harboring wild-type EGFR at 30 and 60 uM measured after 24 hrs by immunoblotting analysis; format: functional, cell-based
PC-9 [37] = test: Increase in cleaved caspase3 level in human erlotinib-resistant PC9 cells harboring EGFR T790M mutant at 30 and 60 uM by immunoblotting analysis; format: functional, cell-based
NCI-H460 [38] = test: Increase in PARP level in human NCI-H460 cells harboring wild-type EGFR at 30 and 60 uM by immunoblotting analysis; format: functional, cell-based
NCI-H1975 [39] = test: Antiproliferative activity against human NCI-H1975 cells harboring EGFR-mutant assessed as cell viability measured after 24 hrs; format: functional, cell-based
NCI-H460 [40] = test: Decrease in EGFR level in human NCI-H460 cells harboring wild-type EGFR at 30 and 60 uM measured after 24 hrs by immunoblotting analysis; format: functional, cell-based
PC-9 [41] = test: Increase in cleaved caspase3 level in human gefitinib-resistant PC9 cells harboring EGFR T790M mutant at 30 and 60 uM by immunoblotting analysis; format: functional, cell-based
A549 [42] = test: Antiproliferative activity against human A549 cells harboring wild-type EGFR assessed as cell viability at 30 and 60 uM measured after 24 hrs; format: functional, cell-based
NCI-H1975 [43] = test: Increase in cleaved caspase3 level in human NCI-H1975 cells harboring EGFR-mutant at 30 and 60 uM by immunoblotting analysis; format: functional, cell-based
NCI-H1975 [44] = test: Induction of apoptosis in human NCI-H1975 cells harboring EGFR-mutant assessed as cell death at 60 uM in presence of NAC; format: functional, cell-based
PC-9 [45] = test: Induction of apoptosis in human gefitinib-resistant PC9 cells harboring EGFR T790M mutant assessed as cell death at 30 and 60 uM measured after 24 hrs by Annexin-V/PI staining based analysis; format: functional

Sequence of Epidermal growth factor receptor (Homo sapiens) (P00533 whole entry): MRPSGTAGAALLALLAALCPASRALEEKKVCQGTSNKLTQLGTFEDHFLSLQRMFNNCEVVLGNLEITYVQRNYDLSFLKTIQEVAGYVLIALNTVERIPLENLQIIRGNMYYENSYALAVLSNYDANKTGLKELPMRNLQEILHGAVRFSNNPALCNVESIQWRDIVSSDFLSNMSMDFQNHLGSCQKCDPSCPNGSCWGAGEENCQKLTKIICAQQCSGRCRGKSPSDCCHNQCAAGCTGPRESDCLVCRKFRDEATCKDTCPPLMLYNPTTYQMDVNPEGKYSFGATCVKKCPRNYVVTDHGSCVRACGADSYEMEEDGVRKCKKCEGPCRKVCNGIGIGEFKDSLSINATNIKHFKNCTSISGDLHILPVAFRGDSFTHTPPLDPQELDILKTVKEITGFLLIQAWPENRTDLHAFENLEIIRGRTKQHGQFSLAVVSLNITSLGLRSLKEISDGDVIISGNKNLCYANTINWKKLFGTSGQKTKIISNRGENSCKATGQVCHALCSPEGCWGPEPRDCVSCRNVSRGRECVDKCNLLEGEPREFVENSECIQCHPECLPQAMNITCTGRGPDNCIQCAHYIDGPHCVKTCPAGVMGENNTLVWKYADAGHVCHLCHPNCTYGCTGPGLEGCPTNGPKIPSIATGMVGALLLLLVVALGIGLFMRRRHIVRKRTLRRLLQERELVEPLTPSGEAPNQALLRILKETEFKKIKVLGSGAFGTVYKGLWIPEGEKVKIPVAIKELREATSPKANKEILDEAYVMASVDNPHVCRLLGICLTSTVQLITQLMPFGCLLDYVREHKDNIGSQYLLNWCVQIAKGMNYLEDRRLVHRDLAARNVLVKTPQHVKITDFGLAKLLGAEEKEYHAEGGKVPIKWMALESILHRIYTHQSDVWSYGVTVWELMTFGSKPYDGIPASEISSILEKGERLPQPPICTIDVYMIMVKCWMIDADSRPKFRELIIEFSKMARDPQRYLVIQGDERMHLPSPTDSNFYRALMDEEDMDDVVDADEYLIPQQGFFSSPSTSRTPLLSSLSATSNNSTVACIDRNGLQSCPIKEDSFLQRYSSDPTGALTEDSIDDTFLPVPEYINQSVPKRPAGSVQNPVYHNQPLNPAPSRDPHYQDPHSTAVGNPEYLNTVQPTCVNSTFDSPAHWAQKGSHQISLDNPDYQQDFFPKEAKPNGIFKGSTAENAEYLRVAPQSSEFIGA

`O=C(O)c1cc(O)c(O)c(O)c1` was tested, and the inhibition (NCI-H1650 [1]) was “Dose-dependent effect”, the inhibition [2] was “inactive” and the inhibition (NCI-H1650 [3]) was “Active”. For the same compound, the Activity (NCI-H1975 [4]) was “inactive”, the inhibition (NCI-H1975 [5]) was “Dose-dependent effect” and the Activity (NCI-H1975 [6]) was “inactive”. The inhibition (NCI-H1650 [7]) was “Active”, the inhibition [8] was “inactive” and the inhibition [9] was “inactive”. For the same compound, the Activity (NCI-H1975 [10]) was “Dose-dependent effect”, the Activity (NCI-H1650 [11]) was “Active” and the Activity (PC-9 [12]) was “Active”. The Activity (A549 [13]) was “inactive”, the Activity (PC-9 [14]) was “Active” and the inhibition (NCI-H1975 [15]) was “Active”. For the same compound, the inhibition (NCI-H1975 [16]) was “Active”, the Activity (A549 [17]) was “Active” and the Activity (PC-9 [18]) was “Active”. The Activity (PC-9 [19]) was “Dose-dependent effect”, the Activity (NCI-H1650 [20]) was “Dose-dependent effect” and the Activity (NCI-H1975 [21]) was “Active”. The Activity (NCI-H1650 [22]) was “inactive”, the inhibition [23] was “inactive” and the Activity (PC-9 [24]) was “Dose-dependent effect”. For the same compound, the Activity (NCI-H460 [25]) was “inactive”, the Activity (A549 [26]) was “inactive” and the Activity (PC-9 [27]) was “Active”. For the same compound, the Activity (PC-9 [28]) was “Active”, the Activity (NCI-H1650 [29]) was “Active” and the Activity (NCI-H1975 [30]) was “inactive”. For the same compound, the Activity (NCI-H460 [31]) was “inactive”, the Activity (NCI-H1650 [32]) was “Dose-dependent effect” and the Activity (NCI-H1650 [33]) was “Active”. The Activity (NCI-H1975 [34]) was “inactive”, the Activity (NCI-H460 [35]) was “Active” and the inhibition (A549 [36]) was “inactive”. The Activity (PC-9 [37]) was “Active”, the Activity (NCI-H460 [38]) was “inactive” and the Activity (NCI-H1975 [39]) was “Dose-dependent effect”. For the same compound, the inhibition (NCI-H460 [40]) was “inactive”, the Activity (PC-9 [41]) was “Active” and the Activity (A549 [42]) was “inactive”. For the same compound, the Activity (NCI-H1975 [43]) was “Active”, the Activity (NCI-H1975 [44]) was “Active” and the Activity (PC-9 [45]) was “Active”.
